Results published in patent US20250352548A1, “BTK Reducing Molecules for Treatment of Cancers and Immune System Disorders” (Accutar Biotechnology, Inc., priority 2022, published 2025).

Columns and labels:
[1] = test system: engineered REC1 PLCγ2^S707Y knock-in tumors; assay: Mouse xenograft tumor model, REC1 PLCγ2^S707Y knock-in; format: in vivo; details: for TGI: 14 days after administration, S707Y tumors
Procedure: (§1) Parental REC1 cells (ATCC), engineered REC1 PLCγ2^S707Y cells, and engineered REC-1 PLCγ2^L845F cells, as described in Example 1, were maintained in vitro as monolayer culture in RPMI1640 medium supplemented with 10% fetal bovine serum and 1× Penicillin Streptomycin at 37° C. in an atmosphere of 5% CO2 in air. The tumor cells were routinely subcultured twice weekly. The cells growing in an exponential growth phase were harvested and counted for tumor inoculation. Each mouse was inoculated subcutaneously at the armpit of the right flank with 5×10^6 tumor cells in 0.1 mL of PBS mixed with 0.1 mL matrigel for tumor development. Treatment of the BTK degrader of Formula I-D (1.5 mg/kg, 3 mg/kg, 6 mg/kg, or 15 mg/kg, PO), Ibrutinib (25 mg/kg, PO), or vehicle (PO) started when the average tumor size reached approximately 100 mm^3. Mice were assigned into groups using an Excel-based randomization software performing stratified randomization based upon their tumor volumes. Tumor sizes were measured 3 times weekly in two dimensions using a caliper, and the volume was expressed in mm^3 using the formula: V=0.5 a×b^2 where a and b are the long and short diameters of the tumor, respectively. Tumor growth inhibition (TGI) was calculated for each group using the formula: TGI (%)=[1−(Ti−T0)/(Vi−V0)]×100; Ti is the average tumor volume of a treatment group on a given day, T0 is the average tumor volume of the treatment group on the first day of treatment, Vi is the average tumor volume of the vehicle control group on the same day with Ti, and V0 is the average tumor volume of the vehicle group on the first day of treatment.

[2] = test system: engineered REC1 PLCγ2^L845F knock-in tumors; assay: Mouse xenograft tumor model, REC1 PLCγ2^L845F knock-in; format: in vivo; details: for TGI: 14 days after administration, L845F tumors
Procedure: as §1

[3] = test system: engineered REC-1 PLCγ2^L845F cells; assay: Cancer cell growth in vitro, CellTiter-Glo, 6 days; format: cell-based; details: 6 days after administration, compared to Ibrutinib (FIG. 1C)
Procedure: (§2) Parental REC1 cells were obtained from the American Type Culture Collection (ATCC). PLCγ2 gene in REC-1 cell line was edited using the CRISPR-Cas9 technology to create a S to Y point mutation at residue 707 of PLCγ2 protein, or L to F point mutation at residue 845 of PLCγ2 protein. For gene editing, first, gRNA complex of PLCγ2 S707Y or PLCγ2 L845F was prepared with Alt-R CRISPR-Cas9 tracrRNA and crRNA PLCγ2 S707Y (5′-[…]-3′) or PLCγ2 L845F (5′-[…]-3′) (IDT-Integrated DNA Technologies), and then ribonucleoprotein (RNP) complex of PLCγ2 S707Y or PLCγ2 L845F was prepared with respective gRNA complex and Alt-R S.p. Cas9 Nuclease V3 (IDT-Integrated DNA Technologies). […]
(§3) Parental REC1 cells (ATCC), engineered REC1 PLCγ2^S707Y cells, or engineered REC-1 PLCγ2^L845F cells, were plated in 96-well plates at 8,000 cells/well in 90 μl of RPMI1640 growth medium containing 10% heat-inactivated FBS and 1× Penicillin Streptomycin, and then incubated at 37° C. overnight. […] The plates were then incubated at room temperature for 10 minutes and luminescence was recorded by EnSpire plate reader (PerkinElmer).

[4] = test system: engineered REC1 PLCγ2^S707Y cells; assay: Cancer cell growth in vitro, CellTiter-Glo, 6 days; format: cell-based; details: 6 days after administration, compared to Ibrutinib (FIG. 1B)
Procedure: as §2, §3

Row | Structure (SMILES) | TGI ([1]; Ibrutinib 25 mg/kg PO) [%] | TGI ([2]; Ibrutinib 25 mg/kg PO) [%] | cell growth inhibition [3] | cell growth inhibition [4] | TGI ([1]; 3 mg/kg PO) [%] | TGI ([1]; 6 mg/kg PO) [%] | TGI ([1]; 15 mg/kg PO) [%] | tumor growth inhibition vs Ibrutinib ([1]; REC1 PLCγ2^S707Y knock-in mice, PO, 14 days after administration (FIG. 2B)) | TGI ([2]; 3 mg/kg PO) [%] | TGI ([2]; 6 mg/kg PO) [%] | TGI ([2]; 15 mg/kg PO) [%] | tumor growth inhibition vs Ibrutinib ([2]; REC-1 PLCγ2^L845F knock-in mice, PO, 14 days after administration (FIG. 2C))
1 | C=CC(=O)N1CCC[C@@H](n2nc(-c3ccc(Oc4ccccc4)cc3)c3c(N)ncnc32)C1 [Ibrutinib, reference compound] | 5 | 12 | – | – | – | – | – | – | – | – | – | –
2 | COc1ccc(F)cc1C(=O)NCc1ccc(-c2nn(-c3ccc(N4CCC(CN5CCN(c6ccc7c(c6)CN(C6CCC(=O)NC6=O)C7=O)CC5)CC4)c(F)c3)c3ncnc(N)c23)cc1 (stereo not drawn) [Formula I-D] | – | – | significantly inhibited cell growth | significantly inhibited cell growth | 61 | 74 | 86 | significantly inhibited tumor growth | 63 | 81 | 88 | significantly inhibited tumor growth
